Test results published in patent US12371436B2, “Substituted benzodiazoliums as ENaC inhibitors” (ENTERPRISE THERAPEUTICS LIMITED, priority 2016, dated 2025).

Target: T1, ENaC (Homo sapiens, UniProt P37088+P51168+P51170)
T1 construct: host or cells: primary human bronchial epithelial cells (HBECs) differentiated at air-liquid interface
T1 sequence (P37088 1-669): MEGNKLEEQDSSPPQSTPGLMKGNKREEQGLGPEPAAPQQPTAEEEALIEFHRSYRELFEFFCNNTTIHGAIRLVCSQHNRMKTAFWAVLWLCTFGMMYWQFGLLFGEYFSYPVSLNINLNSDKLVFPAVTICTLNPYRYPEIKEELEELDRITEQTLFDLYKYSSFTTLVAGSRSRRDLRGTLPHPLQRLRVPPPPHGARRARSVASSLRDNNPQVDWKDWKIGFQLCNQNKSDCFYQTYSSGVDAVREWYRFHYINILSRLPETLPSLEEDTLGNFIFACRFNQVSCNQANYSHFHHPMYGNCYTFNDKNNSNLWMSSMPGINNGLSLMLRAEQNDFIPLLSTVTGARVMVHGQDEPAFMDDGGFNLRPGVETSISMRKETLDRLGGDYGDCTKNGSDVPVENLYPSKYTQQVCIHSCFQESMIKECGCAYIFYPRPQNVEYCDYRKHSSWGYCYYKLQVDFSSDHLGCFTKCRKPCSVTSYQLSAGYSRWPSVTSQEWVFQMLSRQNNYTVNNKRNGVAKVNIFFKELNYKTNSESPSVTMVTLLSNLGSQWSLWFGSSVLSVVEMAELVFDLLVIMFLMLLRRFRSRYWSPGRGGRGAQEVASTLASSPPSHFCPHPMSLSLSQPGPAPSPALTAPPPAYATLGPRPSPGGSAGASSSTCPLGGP
T1 sequence (P51168 1-640): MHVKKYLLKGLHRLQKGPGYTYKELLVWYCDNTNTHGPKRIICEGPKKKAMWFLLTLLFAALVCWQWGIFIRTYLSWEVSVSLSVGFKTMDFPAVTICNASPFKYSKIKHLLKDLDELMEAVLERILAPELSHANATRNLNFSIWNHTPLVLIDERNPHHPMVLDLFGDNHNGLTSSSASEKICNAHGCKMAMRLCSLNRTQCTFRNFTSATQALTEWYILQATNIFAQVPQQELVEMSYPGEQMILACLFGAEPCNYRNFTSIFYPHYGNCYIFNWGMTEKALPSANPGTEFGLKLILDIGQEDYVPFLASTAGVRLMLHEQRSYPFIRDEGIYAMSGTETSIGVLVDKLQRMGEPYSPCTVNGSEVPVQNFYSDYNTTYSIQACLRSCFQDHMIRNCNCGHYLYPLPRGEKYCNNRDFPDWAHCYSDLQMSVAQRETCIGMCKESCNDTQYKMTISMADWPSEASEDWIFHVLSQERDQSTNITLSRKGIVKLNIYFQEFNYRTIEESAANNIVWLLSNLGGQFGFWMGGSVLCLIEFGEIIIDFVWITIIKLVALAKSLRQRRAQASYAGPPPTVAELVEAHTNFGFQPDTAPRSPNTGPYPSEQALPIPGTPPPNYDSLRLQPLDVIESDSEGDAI
T1 sequence (P51170 1-649): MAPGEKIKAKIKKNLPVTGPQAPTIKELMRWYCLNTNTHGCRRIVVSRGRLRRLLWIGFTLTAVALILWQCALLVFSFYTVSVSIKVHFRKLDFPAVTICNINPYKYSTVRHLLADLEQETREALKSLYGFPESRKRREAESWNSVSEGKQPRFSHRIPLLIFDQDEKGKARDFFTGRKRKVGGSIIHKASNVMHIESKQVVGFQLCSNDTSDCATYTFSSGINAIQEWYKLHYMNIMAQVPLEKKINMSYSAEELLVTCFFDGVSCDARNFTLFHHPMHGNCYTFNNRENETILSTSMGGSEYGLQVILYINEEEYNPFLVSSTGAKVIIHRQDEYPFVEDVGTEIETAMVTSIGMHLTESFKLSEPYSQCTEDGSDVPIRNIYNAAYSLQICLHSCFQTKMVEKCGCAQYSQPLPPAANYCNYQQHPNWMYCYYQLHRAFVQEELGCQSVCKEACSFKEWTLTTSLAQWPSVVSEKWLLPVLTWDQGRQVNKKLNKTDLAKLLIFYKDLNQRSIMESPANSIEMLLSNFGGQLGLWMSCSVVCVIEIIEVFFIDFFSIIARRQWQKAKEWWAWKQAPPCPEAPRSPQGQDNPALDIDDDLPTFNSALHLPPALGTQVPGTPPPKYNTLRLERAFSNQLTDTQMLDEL
Assay: Short circuit current assay to determine ENaC blocker potency in human bronchial epithelial cells
Format: cell-based
Conditions: 50% inhibition of total amiloride-sensitive ISC, apical addition, read-out: Averages.ENaC IC50 (nM) Avg
Description: Example 68—Short circuit current assay to determine ENaC blocker potency in human bronchial epithelial cells
Human bronchial epithelial cells (HBECs) (Lonza, UK) were cultured using a modification of the method described by Coote et al, (2008). Cells were seeded into plastic T-75 flasks and grown in Bronchial Epithelial Cell Growth Medium (BEGM) (Lonza, UK) supplemented with bovine pituitary extract (52 ng/mL), hydrocortisone (0.5 μg/mL), human recombinant Epidermal Growth Factor (0.5 ng/mL), epinephrine (0.5 ng/mL), transferrin (10 ng/mL), insulin (5 ng/mL), retinoic acid (0.1 ng/mL), triiodothyronine (6.5 ng/mL), gentamycin (50 μg/mL) and amphotericin-B (50 ng/mL). Medium was changed every 48 hours until cells were 90% confluent. Cells were then passaged and seeded (8.25×10^5 cells/insert) onto polycarbonate Snapwell™ inserts (Costar, UK) in differentiation media containing 50% DMEM in BGEM with the same supplements as above but without triiodothyronine and a final retinoic acid concentration of 50 nM (all-trans retinoic acid; Sigma-Aldrich, UK). Cells were maintained submerged for the first 7 days in culture after which time they were exposed to an apical air interface for the remainder of the culture period. From the first day of establishment of an ALI, HBEC were fed with a DMEM:HAMS F-12 (1:1) media containing 2% Ultroser G (Pall BioSepra, France) with gentamycin (50 μg/mL) and amphotericin B (50 ng/mL). Cells were used for short-circuit current assay between days 14-21 after the establishment of the ALI. At all stages of culture, cells were maintained at 37° C. in 5% CO2 in an air incubator.
Short-Circuit Current (ISC) Measurements
Snapwell inserts were mounted in Costar Vertical Diffusion Chambers (Costar, UK) and were bathed with continuously gassed Ringer solution (5% CO2 in O2; pH 7.4) maintained at 37° C. containing (in mM): 120 NaCl, 25 NaHCO3, 3.3 KH2PO4, 0.8 K2HPO4, 1.2 CaCl2, 1.2 MgCl2 and 10 glucose. The solution osmolarity was always between 280-300 mOsm/kg H2O for all physiological salt solutions used. Cells were voltage clamped to 0 mV (model EVC4000, WPI). Transepithelial resistance (RT) was measured by applying a 2 mV pulse at 30 s intervals and calculating RT by Ohm's law. Data were recorded using a PowerLab workstation (ADlnstruments, UK).
ENaC blocker compounds were added to the apical chamber from a 1000-fold stock solution (prepared in DMSO) to achieve a cumulative concentration response in terms of the inhibition of the basal ISC. At the completion of the concentration response, a supra-maximal concentration of amiloride (10 μM) was added. The concentration of test compound that induced a 50% inhibition of the total amiloride-sensitive ISC (IC50) was calculated using GraphPad Prism v6.05. The results are presented in Table 2, from which it can be seen that the compounds of the present invention have ENaC inhibiting activity.

IC50 [nM] | SMILES
15 | CCn1c(CNC(=O)c2nc3cc[nH]c3nc2N)[n+](Cc2ccccc2)c2ccc(C(F)(F)F)cc21 [Example 17, 2-[({3-amino-5H-pyrrolo[2,3-b]pyrazin-2-yl}formamido)methyl]-3-benzyl-1-ethyl-6-(trifluoromethyl)-1H-1,3-benzodiazol-3-ium]
5450 | Nc1nc2[nH]ccc2nc1C(=O)NCc1n(CC(=O)N2CCCCC2)c2ccccc2[n+]1Cc1ccccc1 [Example 18, 2-[({3-amino-5H-pyrrolo[2,3-b]pyrazin-2-yl}formamido)methyl]-3-benzyl-1-[2-oxo-2-(piperidin-1-yl)ethyl]-1H-1,3-benzodiazol-3-ium]
8 | CCn1c(CNC(=O)c2nc3cc(C)[nH]c3nc2N)[n+](C)c2ccc(OC)cc21 [Example 19, 2-[({3-amino-6-methyl-5H-pyrrolo[2,3-b]pyrazin-2-yl}formamido)methyl]-1-ethyl-6-methoxy-3-methyl-1H-1,3-benzodiazol-3-ium]
4 | CCn1c(CNC(=O)c2nc3c(C)c[nH]c3nc2N)[n+](CC)c2ccc(Cl)cc21 [Example 20, 2-[({3-amino-7-methyl-5H-pyrrolo[2,3-b]pyrazin-2-yl}formamido)methyl]-6-chloro-1,3-diethyl-1H-1,3-benzodiazol-3-ium]
2 | CCn1c(CNC(=O)c2nc3c(Cl)c[nH]c3nc2N)[n+](CC)c2ccc(Cl)cc21 [Example 21, 2-[({3-amino-7-chloro-5H-pyrrolo[2,3-b]pyrazin-2-yl}formamido)methyl]-6-chloro-1,3-diethyl-1H-1,3-benzodiazol-3-ium]
14 | CCn1c(CNC(=O)c2nc3cc[nH]c3nc2N)[n+](CC)c2ccc(OCCN)cc21 [Example 27, 2-[({3-amino-5H-pyrrolo[2,3-b]pyrazin-2-yl}formamido)methyl]-6-(2-aminoethoxy)-1,3-diethyl-1H-1,3-benzodiazol-3-ium]
7 | CCn1c(CNC(=O)c2nc3cc[nH]c3nc2N)[n+](CC)c2ccc(OCCCN)cc21 [Example 28, 2-[({3-amino-5H-pyrrolo[2,3-b]pyrazin-2-yl}formamido)methyl]-6-(3-aminopropoxy)-1,3-diethyl-1H-1,3-benzodiazol-3-ium]
5 | CCn1c(CNC(=O)c2nc3cc[nH]c3nc2N)[n+](CC)c2ccc(CCCN)cc21 [Example 29, 2-[({3-amino-5H-pyrrolo[2,3-b]pyrazin-2-yl}formamido)methyl]-6-(3-aminopropyl)-1,3-diethyl-1H-1,3-benzodiazol-3-ium]
6 | CCn1c(CNC(=O)c2nc3cc[nH]c3nc2N)[n+](CC)c2ccc(C3CCNCC3)cc21 [Example 30, 2-[({3-amino-5H-pyrrolo[2,3-b]pyrazin-2-yl}formamido)methyl]-1,3-diethyl-6-(piperidin-4-yl)-1H-1,3-benzodiazol-3-ium]
1 | CCn1c(CNC(=O)c2nc3cc[nH]c3nc2N)[n+](CC)c2ccc(-c3cnn(C4CCNCC4)c3)cc21 [Example 31, 2-[({3-amino-5H-pyrrolo[2,3-b]pyrazin-2-yl}formamido)methyl]-1,3-diethyl-6-[1-(piperidin-4-yl)-1H-pyrazol-4-yl]-1H-1,3-benzodiazol-3-ium]

SMILES | IC50 [nM]
CCn1c(CNC(=O)c2nc3cc[nH]c3nc2N)[n+](CC)c2ccc(OCCNC(=O)OC(C)(C)C)cc21 [Example 22, 2-[({3-amino-5H-pyrrolo[2,3-b]pyrazin-2-yl}formamido)methyl]-6-(2-{[(tert-butoxy)carbonyl]amino}ethoxy)-1,3-diethyl-1H-1,3-benzodiazol-3-ium] | 8
CCn1c(CNC(=O)c2nc3cc[nH]c3nc2N)[n+](CC)c2ccc(OCCCNC(=O)OC(C)(C)C)cc21 [Example 23, 2-[({3-amino-5H-pyrrolo[2,3-b]pyrazin-2-yl}formamido)methyl]-6-(3-{[(tert-butoxy)carbonyl]amino}propoxy)-1,3-diethyl-1H-1,3-benzodiazol-3-ium] | 4
CCn1c(CNC(=O)c2nc3cc[nH]c3nc2N)[n+](CC)c2ccc(CCCNC(=O)OC(C)(C)C)cc21 [Example 24, 2-[({3-amino-5H-pyrrolo[2,3-b]pyrazin-2-yl}formamido)methyl]-6-(3-{[(tert-butoxy)carbonyl]amino}propyl)-1,3-diethyl-1H-1,3-benzodiazol-3-ium] | 6
CCn1c(CNC(=O)c2nc3cc[nH]c3nc2N)[n+](CC)c2ccc(C3CCN(C(=O)OC(C)(C)C)CC3)cc21 [Example 25, 2-[({3-amino-5H-pyrrolo[2,3-b]pyrazin-2-yl}formamido)methyl]-6-{1-[(tert-butoxy)carbonyl]piperidin-4-yl}-1,3-diethyl-1H-1,3-benzodiazol-3-ium] | 2
CCn1c(CNC(=O)c2nc3cc[nH]c3nc2N)[n+](CC)c2ccc(-c3cnn(C4CCN(C(=O)OC(C)(C)C)CC4)c3)cc21 [Example 26, 2-[({3-amino-5H-pyrrolo[2,3-b]pyrazin-2-yl}formamido)methyl]-6-(1-{1-[(tert-butoxy)carbonyl]piperidin-4-yl}-1H-pyrazol-4-yl)-1,3-diethyl-1H-1,3-benzodiazol-3-ium] | 1
